Measured values taken from the NIST ThermoML archive (doi:10.1016/j.jct.2009.07.013).

Details: Liquid, Vibrating tube method

CC(C)CCCC(C)CCCC(C)CCCCC(C)CCCC(C)CCCC(C)C (stereo unspecified) [2,6,10,15,19,23-hexamethyltetracosane]
mass density [kg/m3]
Details | 298.15 K | 323.15 K | 348.15 K | 373.15 K | 398.15 K
100 kPa | 804.9 | 789 | 773 | – | –
1000 kPa | 805.4 | 789.6 | 773.7 | 758 | 742.1
5000 kPa | 807.8 | 792.3 | 776.7 | 761.3 | 745.9
10000 kPa | 810.7 | 795.5 | 780.3 | 765.3 | 750.4
15000 kPa | 813.4 | 798.6 | 783.7 | 769.1 | 754.6
20000 kPa | 816.1 | 801.5 | 787 | 772.7 | 758.6
30000 kPa | 821.2 | 807.1 | 793.2 | 779.5 | 766.1
40000 kPa | 826 | 812.3 | 799 | 785.8 | 772.9
45000 kPa | 828.3 | 814.8 | 801.7 | 788.7 | 776.1
50000 kPa | 830.5 | 817.2 | 804.3 | 791.6 | 779.1
60000 kPa | 834.8 | 821.9 | 809.3 | 797.1 | 785

Cc1ccccc1 [toluene]
mass density [kg/m3]
Details | 298.15 K | 323.15 K | 348.15 K | 373.15 K | 398.15 K
100 kPa | 862 | 838.7 | 814.6 | – | –
1000 kPa | 862.7 | 839.5 | 815.6 | 791.1 | 765.3
5000 kPa | 865.7 | 843.1 | 819.8 | 796 | 771.3
10000 kPa | 869.4 | 847.4 | 824.7 | 801.8 | 778.3
15000 kPa | 873 | 851.5 | 829.5 | 807.3 | 784.7
20000 kPa | 876.4 | 855.4 | 834 | 812.5 | 790.8
30000 kPa | 882.9 | 862.7 | 842.4 | 822 | 801.6
40000 kPa | 889 | 869.5 | 850 | 830.6 | 811.2
45000 kPa | 891.9 | 872.7 | 853.6 | 834.6 | 815.7
50000 kPa | 894.7 | 875.9 | 857.1 | 838.4 | 819.9
60000 kPa | 900.2 | 881.9 | 863.8 | 845.8 | 828
